According to ChEMBL document CHEMBL1136504, “Novel bicyclic furanopyrimidines with dual anti-VZV and -HCMV activity” (Bioorg Med Chem Lett, 2003):

Columns and labels:
[1] = test system: HEL; assay: Concentration required against HEL cell proliferation; assay type: functional; settings: Homo sapiens
[2] = test system: Human alphaherpesvirus 3; assay: Antiviral activity evaluated against thymidine kinase deficient(TK-) Varicella Zoster virus (YS); assay type: functional, organism-based
[3] = test system: Human alphaherpesvirus 3; assay: Antiviral activity evaluated against thymidine kinase competent(TK+) Varicella Zoster virus (07); assay type: functional, organism-based
[4] = test system: Human alphaherpesvirus 3; assay: Concentration required to give 50% inhibition of replication of VZV OKA in tissue culture; assay type: functional, organism-based
[5] = test system: HEL; assay: Minimal cytotoxic concentration required to cause a morphological alteration of human embryonic lung fibroblast(HEL) cell cultures; assay type: functional
[6] = test system: Human betaherpesvirus 5; assay: Antiviral activity evaluated against human cytomegalovirus (HCMV) AD169; assay type: functional, organism-based
[7] = test system: Human alphaherpesvirus 3; assay: Antiviral activity evaluated against Varicella Zoster virus (YS); assay type: functional, organism-based
[8] = test system: Human betaherpesvirus 5; assay: Antiviral activity evaluated against human cytomegalovirus (HCMV) Davis; assay type: functional, organism-based

| EC50 [2] [µM] | EC50 [3] [µM] | EC50 [4] [µM] | EC50 [6] [µM] | EC50 [7] [µM] | EC50 [8] [µM] | SMILES | CC50 [1] [µM] | MCC [5] [µM] |
| --- | --- | --- | --- | --- | --- | --- | --- | --- |
| ≥ 50 | ≥ 200 | 0.05 | 9.7 | 0.03 | 30 | O=c1nc2oc(CCCCCCCCCOCCCCCl)cc2cn1[C@H]1C[C@H](O)[C@@H](CO)O1 | > 200 | ≥ 200 |
|  |  | 6 |  |  |  | CCCCCCCOCCc1cc2cn([C@H]3C[C@H](O)[C@@H](CO)O3)c(=O)nc2o1 |  |  |
| > 5 | > 5 | 0.05 | > 5 | 0.06 | 5 | CC(C)CCOCCCCCCCCCc1cc2cn([C@H]3C[C@H](O)[C@@H](CO)O3)c(=O)nc2o1 | > 200 | 10 |
| > 5 | > 5 | 0.09 | > 5 | 0.1 | 5 | O=c1nc2oc(CCCCCCCCCOCC3CCCC3)cc2cn1[C@H]1C[C@H](O)[C@@H](CO)O1 | > 200 | ≥ 5 |
| > 5 | > 5 | 0.02 | > 5 | 0.03 | > 5 | CCCCOCCCCCCCCCc1cc2cn([C@H]3C[C@H](O)[C@@H](CO)O3)c(=O)nc2o1 | > 200 | 20 |
| > 5 | > 5 | 0.01 | > 5 | 0.02 | > 5 | CCCCCOCCCCCCCCCc1cc2cn([C@H]3C[C@H](O)[C@@H](CO)O3)c(=O)nc2o1 | > 200 | 10 |

| SMILES | EC50 [2] [µM] | EC50 [3] [µM] | EC50 [4] [µM] | EC50 [6] [µM] | EC50 [7] [µM] | EC50 [8] [µM] | CC50 [1] [µM] | MCC [5] [µM] |
| --- | --- | --- | --- | --- | --- | --- | --- | --- |
| Nc1nc2c(ncn2COC(CO)CO)c(=O)[nH]1 [GANCICLOVIR] |  |  |  | 4 |  | 5.7 | > 150 | > 150 |
